Measurements published in publication PMC12387469, “Dolabellane Diterpenoids from Soft Coral Clavularia viridis with Anti-Inflammatory Activities” (Marine Drugs, 2025).

Key:
[1] = Cytotoxic effect in BV-2 cells, Cell Counting Kit-8 (CCK-8) assay; assay type: cell-based; conditions: mouse, BV-2 microglia cells
Procedure: Cells were pretreated with or without compounds for 2 h and then induced with 40 μg/mL LPS for another 48 h. […] The absorbance was then measured at a wavelength of 450 nm with a microplate reader (Thermo Fisher Scientific, Marietta, OH, USA). The cell proliferation was expressed as a ratio of control.

[2] = tested on: NO production in LPS-stimulated BV2 cells; test: Inhibition of NO production in LPS-stimulated BV2 cells (Griess reagent); conditions: Mus musculus; for inhibition at 20 µM: BV-2, read-out: NO Inhibitory Activity % Inhibition (20 μM); for IC50: BV-2, read-out: NO Inhibitory Activity IC50
Procedure: To evaluate the anti-inflammatory effect, all compounds were screened on an LPS-stimulated BV2 model to determine the inhibitory effects against NO production [21].
The BV-2 mouse microglia cell line was purchased from the Cell Bank of Shanghai Institute of Biochemistry and Cell Biology, Chinese Academy of Sciences (Shanghai, China), and was cultured in Dulbecco’s modified Eagle medium (DMEM, Gibco Invitrogen Corp., Suzhou, China) supplemented with 10% fetal bovine serum (FBS), 100 units/mL penicillin, and 100 mg/mL streptomycin. The cells were placed at 37 °C in a humidified incubator containing 5% CO2.
The inhibitory activity of the isolated compounds toward NO production was determined using the Griess reagent system (Beyotime). Cells were cultured in each well of 96-well plates at a density of 5 × 10^4 cells/well with 100 mL of DMEM for 24 h. Test samples dissolved in DMSO and diluted with DMEM were added, as well as 2 mg/mL LPS as a stimulus. The final drug concentration was 50 μM with 1% DMSO. Wells treated with only LPS served as model controls, and wells treated with neither LPS nor test samples served as blank controls (all contained 1% DMSO). After 24 h incubation, half of the medium (50 mL) in each well was harvested.

In the case of `CC1=C2C(O)CC3(C)CCC(C)CC(=O)CC(C)CC(OC1=O)C23` (stereo not shown) [Compound 1, Clavirolide W], the CC50 at 50 h [1] is reported as greater than 50 µM and the inhibition at 20 µM [2] is reported as 15.1 ± 2.4%.
Work on `CC1=C2CCC3(C)CCC(C)CC(=O)CC(C)CC(OC1=O)C23OO` (stereo not shown) [Compound 2, Clavirolide X] yielded a CC50 at 50 h [1] greater than 50 µM and an inhibition at 20 µM [2] of 36.4 ± 1.7%.
With `CC1=CC(=O)C=C(C)CC2OC(=O)C(C)=C3CCC(C)(CC1)C32` (stereo not shown) [Compound 3, Clavirolide Y] the CC50 at 50 h [1] was greater than 50 µM, the inhibition at 20 µM [2] was 42.7 ± 3.5% and the IC50 [2] was 27 ± 0.6 µM.
Work on `CC1=CCC2(C)CCC3=C(C)C(=O)OC(CC(C)CC(=O)C1)C32OO` (stereo not shown) [Compound 4, Clavirolide Z] yielded a CC50 at 50 h [1] greater than 50 µM and an inhibition at 20 µM [2] of 29 ± 2.8%.
`CC1=CC(OO)C2(C)CCC3=C(C)C(=O)OC(CC(C)CC(=O)C1)C32` (stereo not shown) [Compound 5, clavularol A] gave a CC50 at 50 h [1] greater than 50 µM and an inhibition at 20 µM [2] of 26.8 ± 3.6%.
With `CC1=CC(=O)CC(C)=CC(O)C2C(C(C)(C)OO)=CCC2(C)CC1` (stereo not shown) [Compound 6, clavularol B] the CC50 at 50 h [1] was greater than 50 µM and the inhibition at 20 µM [2] was 14.6 ± 1.2%.
Work on `C=C1CCC=C(C)CC(O)C2C(C)(CC1)CC1OC12C(C)(C)O` (stereo not shown) [Compound 7, clavularol C] yielded a CC50 at 50 h [1] greater than 50 µM and an inhibition at 20 µM [2] of 24 ± 3.8%.
In the case of `C=C1CC[C@@H]2O[C@@]2(C)C[C@@H](O)C2=C(C(C)(C)O)CC[C@@]2(C)CC1` [Compound 8, Clavularol D], the CC50 at 50 h [1] is reported as greater than 50 µM and the inhibition at 20 µM [2] is reported as 35.9 ± 4.2%.
For `C=C1CCC2OC2(C)CC(O)C2=C(C(C)(C)O)CCC2(C)CC1` (stereo not shown) [Compound 9, Clavularol E], the CC50 at 50 h [1] was greater than 50 µM and the inhibition at 20 µM [2] was 12.6 ± 2.6%.
Work on `C=C1CC[C@@H]2O[C@@]2(C)C[C@@H](O)[C@@H]2C(C(C)(C)O)=CC[C@@]2(C)CC1` [Compound 10, clavularol F] yielded a CC50 at 50 h [1] greater than 50 µM, an inhibition at 20 µM [2] of 68.9 ± 3.6% and an IC50 [2] of 18.3 ± 0.6 µM.
For `C=C1CC[C@H]2O[C@]2(C)C[C@@H](O)[C@H]2[C@](C)(CC1)CC[C@@]2(O)C(=C)C` [Compound 11, Clavularol G], the CC50 at 50 h [1] was greater than 50 µM and the inhibition at 20 µM [2] was 18.4 ± 2.8%.
Work on `C=C1CCC(O)C(C)=CC2OC(C)(C)C3=C2C(C)(CC1)CC3` (stereo not shown) [Compound 12, Clavularol H] yielded a CC50 at 50 h [1] greater than 50 µM, an inhibition at 20 µM [2] of 48.8 ± 4.2% and an IC50 [2] of 20.3 ± 0.3 µM.
`C=C1CCC=C(C)CC(O)C2C(C(C)(C)O)=CCC2(C)CC1` (stereo not shown) [Compound 13, clavularinlide E] gave a CC50 at 50 h [1] greater than 50 µM, an inhibition at 20 µM [2] of 45.6 ± 3.5% and an IC50 [2] of 20.3 ± 0.3 µM.
`C=C1CCC=C(C)CC(O)C2=C(C(C)(C)O)CCC2(C)CC1` (stereo not shown) [Compound 14, clavudiol A] gave a CC50 at 50 h [1] greater than 50 µM and an inhibition at 20 µM [2] of 25.4 ± 2.4%.
With `CC1=C2CC[C@@]3(C)CC[C@H](C)CC(=O)C[C@@H](C)C[C@@H](OC1=O)[C@H]23` [Compound 15, clavirolide C] the CC50 at 50 h [1] was greater than 50 µM, the inhibition at 20 µM [2] was 48.3 ± 3.6% and the IC50 [2] was 23.4 ± 0.4 µM.
For `[H]/N=C(/NC)NCCC[C@H](N)C(=O)O` [L-NMMA, L-NG-monomethyl arginine, reference compound], the inhibition at 20 µM [2] was 76.7 ± 4.2% and the IC50 [2] was 17.8 ± 0.6 µM.
